According to US20120064556A1, “LIPOPROTEIN LIPASE ASSAY” (THE RESEARCH FOUNDATION OF STATE UNIVERSTIY OF NEW YORK, priority 2010, published 2012):
Each block holds one molecule with its values, some of them ahead of it.

Experiments:
[1] = tested on: lipoprotein lipase (LPL); experiment: EnzChek substrate fluorescence assay of LPL activity; type: biochemical; settings: for increase of LPL activity: over the concentration ranges tested (FIGS. 5A and 5B)
Protocol: In FIG. 1, background substrate hydrolysis was deducted from each measurement, initial rate was plotted against substrate concentration and each data point is the mean of triplicate determinations.
The effects of components that may be present in biological LPL samples and affect the assay were also evaluated and illustrated in FIG. 5. Addition of heparin and calcium increased LPL activity by about 6% over the concentration ranges tested, shown in FIGS. 5A and 5B, while HIS, added from 0-10% decreased the activity by about 12%, shown in FIG. 5C. Addition of NaCl increased the reaction rate, shown in FIG. 5D, with the highest rate, 46% higher than that without salt, occurring at 0.15 M. As NaCl was increased further, the reaction rate dropped, but even at 2.5 M was not reduced to that without NaCl. This implies that there is no inhibition of LPL activity by NaCl if apoC-II is not used in the assay.
The SpectraMax® M2 plate reader and SoftMax® Pro 5 from MDS Analytical Technologies were used for fluorescent measurements. The optimal wavelength was determined to be […] with a 495 nm filter cutoff. The linear capacity of these instruments is up to 2.4 μmol/well. An assay was performed in a black 96-well plate from Costar® in the presence of 0.15 M NaCl, 20 mM Tris-HCl, and 0.0125% Zwittergent® and 1.5% fatty acid free BSA. A 4× working solution was freshly prepared with 0.6 M NaCl, 80 mM Tris-HCl and 6% fatty acid free BSA. The background hydrolysis rate of the substrate was about 1 pmol/min. In the typical assay, the amount of substrate hydrolyzed was less than about 5% of the available substrate.
Enzymatic parameters were calculated using unquenched the BODIPY-C12 probe, the reaction rate in pmol/min was calculated. The rate of hydrolysis as determined from the continuous increase in fluorescence intensity is equal to the rate of separation of the quencher fatty acid from the substrate. Enzymatic parameters such as Vmax, Km, Kcat, detection limit, Z factors and correlation coefficient were calculated based on the standard definition of those parameters. The data is presented as mean plus standard deviation of three replicates and described below in Example 2 for a comparison of the inventive method and a traditional assay.

[2] = solubility and shelf life of substrate in the assay buffer; type: physicochemical
[3] = molecular target: T1, human LPL (Homo sapiens, UniProt P06858); experiment: radiolabeled triolein assay of human LPL activity in conditioned media; type: biochemical; settings: same samples, radiolabeled triolein assay (FIG. 6B)
T1 construct: made in house; host or cells: HEK293 (conditioned medium, not purified)
T1 sequence (P06858 28-475): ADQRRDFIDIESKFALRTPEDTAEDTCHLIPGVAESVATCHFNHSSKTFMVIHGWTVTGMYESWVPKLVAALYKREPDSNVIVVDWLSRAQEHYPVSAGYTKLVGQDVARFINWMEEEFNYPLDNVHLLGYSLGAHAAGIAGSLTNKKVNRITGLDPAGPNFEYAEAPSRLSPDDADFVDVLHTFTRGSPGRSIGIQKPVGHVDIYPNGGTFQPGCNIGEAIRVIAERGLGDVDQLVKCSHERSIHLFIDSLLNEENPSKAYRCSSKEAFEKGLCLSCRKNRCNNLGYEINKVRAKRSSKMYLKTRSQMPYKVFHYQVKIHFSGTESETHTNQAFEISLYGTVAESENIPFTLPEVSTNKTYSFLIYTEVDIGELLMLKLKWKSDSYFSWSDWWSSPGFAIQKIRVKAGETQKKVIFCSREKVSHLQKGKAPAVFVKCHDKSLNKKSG
Excerpt: (§1) Background substrate hydrolysis was deducted from each measurement. LPL activity is expressed as a percentage of the activity measured in the absence of ANGPTL4. The values are the mean +/− standard deviation in triplicate repeats, p<0.05.

[4] = molecular target: T1, human LPL; experiment: EnzChek assay of human LPL activity in conditioned media; type: biochemical; settings: 25 μL conditioned medium mixed with 25 μL human LPL medium, 30 minutes on ice, 0.62 μM EnzChek substrate, p<0.05 (FIG. 6A)
Protocol: Conditioned media was generated by transfection in HEK293 cells as is known. Medium obtained from cells expressing from an empty vector was included as a control for the LPL assay. No lipase activity was detected in the control medium. Pre and post-heparin mouse serum was obtained from blood drawn 5 minutes after the injection of 10 units heparin per kg body weight of the mouse.
To determine whether the conditions of the assay are such that the two forms of the enzyme are maintained and can be differentiated by the biological activity of the lipase, two conditioned media were generated containing human LPL and ANGPTL4 respectively.
as §1

Molecule: [Ca+2] [calcium]
increase of LPL activity [1]: about 6%

Molecule: [Cl-].[Na+] [NaCl]
reaction rate higher than that without salt ([1]; highest rate, at 0.15 M (FIG. 5D)): 46%
inhibition of LPL activity ([1]; up to 2.5 M, apoC-II not used in the assay): no inhibition

Molecule: CCCCCCCCCCCCOCC(COC(=O)CCCC(=O)Oc1ccc2nc3ccc(=O)cc-3oc2c1C)OCCCCCCCCCCCC (racemic) [DGGR substrate, 1,2-o-dilauryl-rac-glycero-3-glutaric acid-(6′-methylresorufin) ester]
shelf life / precipitation in the assay buffer [2]: precipitated after only one week
solubility in the assay buffer [2]: limited solubility

increase of LPL activity [1]: about 6%
Molecule: heparin [reference compound]

effect on LPL activity [3]: comparable result
effect on LPL activity [4]: inhibited the LPL activity
B1: ANGPTL4 conditioned media: conditioned medium from transfected HEK293 cells containing ANGPTL4, an endogenous inhibitor of LPL (protein, UniProt Q9BY76 26-406, looked up)
Angiopoietin-related protein 4: GPVQSKSPRFASWDEMNVLAHGLLQLGQGLREHAERTRSQLSALERRLSACGSACQGTEGSTDLPLAPESRVDPEVLHSLQTQLKAQNSRIQQLFHKVAQQQRHLEKQHLRIQHLQSQFGLLDHKHLDHEVAKPARRKRLPEMAQPVDPAHNVSRLHRLPRDCQELFQVGERQSGLFEIQPQGSPPFLVNCKMTSDGGWTVIQRRHDGSVDFNRPWEAYKAGFGDPHGEFWLGLEKVHSITGDRNSRLAVQLRDWDGNAELLQFSVHLGGEDTAYSLQLTAPVAGQLGATTVPPSGLSVPFSTWDQDHDLRRDKNCAKSLSGGWWFGTCSHSNLNGQYFRSIPQQRQKLKKGIFWKTWRGRYYPLQATTMLIQPMAAEAAS
modifications: in conditioned medium of transfected HEK293 cells
